Laboratory results from ChEMBL document CHEMBL3885881, “DrugMatrix”.

Species on record: Rattus norvegicus
Experiment: DrugMatrix - Regimen: Daily Repeat
Format: toxicity, organism-based, Sprague-Dawley
Design: regimen Daily Repeat, gender Male, age 6-8 weeks
Settings: in vivo, po, route oral GAVAGE, vehicle .5 % CMC; for ABSOLUTE BASOPHIL / ABSOLUTE EOSINOPHIL / ABSOLUTE LYMPHOCYTE / ABSOLUTE MONOCYTE / ABSOLUTE SEGMENTED NEUTROPHIL / BASOPHIL / EOSINOPHIL / ERYTHROCYTE COUNT / HEMATOCRIT / HEMOGLOBIN / LEUKOCYTE COUNT / LYMPHOCYTE / MEAN CORPUSCULAR HEMOGLOBIN / MEAN CORPUSCULAR HEMOGLOBIN CONCENTRATION / MEAN CORPUSCULAR VOLUME / MONOCYTE / NEUTROPHIL / NUCLEATED RED BLOOD CELLS / PLATELET COUNT: tissue Blood; for ALANINE AMINOTRANSFERASE / ALBUMIN / ALKALINE PHOSPHATASE / ASPARTATE AMINOTRANSFERASE / BLOOD UREA NITROGEN / CARBON DIOXIDE / CHLORIDE / CHOLESTEROL / CREATINE PHOSPHOKINASE / CREATININE / GLUCOSE / LACTATE DEHYDROGENASE / LIPASE / PHOSPHORUS / POTASSIUM / SODIUM / TOTAL BILIRUBIN / TOTAL PROTEIN / URIC ACID: tissue Plasma
[1] = 55 mg/kg, 120 h, dose level Low, time 5 day
[2] = 1000 mg/kg, 72 h, dose level High, time 3 day
[3] = 1000 mg/kg, 120 h, dose level High, time 5 day

Compound: CCN1CCCC1CNC(=O)c1cc(S(N)(=O)=O)ccc1OC (centres undefined) [SULPIRIDE]
- ABSOLUTE BASOPHIL [1]: 0 CELLS/uL
- ABSOLUTE EOSINOPHIL [1]: 0 CELLS/uL
- ABSOLUTE LYMPHOCYTE [1]: 14792 CELLS/uL
- ABSOLUTE MONOCYTE [1]: 54.33 CELLS/uL
- ABSOLUTE SEGMENTED NEUTROPHIL [1]: 2187 CELLS/uL
- BASOPHIL [1]: 0%
- EOSINOPHIL [1]: 0%
- ERYTHROCYTE COUNT [1]: 5.47 x10E6/uL
- HEMATOCRIT [1]: 34.67%
- HEMOGLOBIN [1]: 13.83 G/DL
- LEUKOCYTE COUNT [1]: 17.03 x10E3/uL
- LYMPHOCYTE [1]: 86%
- MEAN CORPUSCULAR HEMOGLOBIN [1]: 25.3 pg
- MEAN CORPUSCULAR HEMOGLOBIN CONCENTRATION [1]: 39.93 G/DL
- MEAN CORPUSCULAR VOLUME [1]: 63.4 fL
- MONOCYTE [1]: 0.33%
- NEUTROPHIL [1]: 13.67%
- NUCLEATED RED BLOOD CELLS [1]: 0 /100WBC
- PLATELET COUNT [1]: 1253.33 x10E3/uL
- ALANINE AMINOTRANSFERASE [1]: 50.67 u/L
- ALBUMIN [1]: 4.43 G/DL
- ALKALINE PHOSPHATASE [1]: 322.67 u/L
- ASPARTATE AMINOTRANSFERASE [1]: 90 u/L
- BLOOD UREA NITROGEN [1]: 16 mg/dL
- CARBON DIOXIDE [1]: 28 mmol/L
- CHLORIDE [1]: 102 MEQ/L
- CHOLESTEROL [1]: 86.33 mg/dL
- CREATINE PHOSPHOKINASE [1]: 434.67 u/L
- CREATININE [1]: 0.2 mg/dL
- GLUCOSE [1]: 160.33 mg/dL
- LACTATE DEHYDROGENASE [1]: 149 u/L
- LIPASE [1]: 9 u/L
- PHOSPHORUS [1]: 13 mg/dL
- POTASSIUM [1]: 6.98 MEQ/L
- SODIUM [1]: 147.83 MEQ/L
- TOTAL BILIRUBIN [1]: 0.2 mg/dL
- TOTAL PROTEIN [1]: 6.2 G/DL
- URIC ACID [1]: 1.9 mg/dL
- ABSOLUTE BASOPHIL [2]: 0 CELLS/uL
- ABSOLUTE EOSINOPHIL [2]: 50.67 CELLS/uL
- ABSOLUTE LYMPHOCYTE [2]: 15013.67 CELLS/uL
- ABSOLUTE MONOCYTE [2]: 0 CELLS/uL
- ABSOLUTE SEGMENTED NEUTROPHIL [2]: 1202.33 CELLS/uL
- BASOPHIL [2]: 0%
- EOSINOPHIL [2]: 0.33%
- ERYTHROCYTE COUNT [2]: 5.92 x10E6/uL
- HEMATOCRIT [2]: 38.13%
- HEMOGLOBIN [2]: 15.07 G/DL
- LEUKOCYTE COUNT [2]: 16.27 x10E3/uL
- LYMPHOCYTE [2]: 92%
- MEAN CORPUSCULAR HEMOGLOBIN [2]: 25.5 pg
- MEAN CORPUSCULAR HEMOGLOBIN CONCENTRATION [2]: 39.53 G/DL
- MEAN CORPUSCULAR VOLUME [2]: 64.5 fL
- MONOCYTE [2]: 0%
- NEUTROPHIL [2]: 7.67%
- NUCLEATED RED BLOOD CELLS [2]: 0 /100WBC
- PLATELET COUNT [2]: 1327 x10E3/uL
- ALANINE AMINOTRANSFERASE [2]: 52.33 u/L
- ALBUMIN [2]: 4.53 G/DL
- ALKALINE PHOSPHATASE [2]: 415 u/L
- ASPARTATE AMINOTRANSFERASE [2]: 78.33 u/L
- BLOOD UREA NITROGEN [2]: 16.67 mg/dL
- CARBON DIOXIDE [2]: 29.33 mmol/L
- CHLORIDE [2]: 102.67 MEQ/L
- CHOLESTEROL [2]: 85 mg/dL
- CREATINE PHOSPHOKINASE [2]: 227.33 u/L
- CREATININE [2]: 0.21 mg/dL
- GLUCOSE [2]: 146 mg/dL
- LACTATE DEHYDROGENASE [2]: 310 u/L
- LIPASE [2]: 9.33 u/L
- PHOSPHORUS [2]: 14.17 mg/dL
- POTASSIUM [2]: 7.01 MEQ/L
- SODIUM [2]: 147.37 MEQ/L
- TOTAL BILIRUBIN [2]: 0.2 mg/dL
- TOTAL PROTEIN [2]: 6.33 G/DL
- URIC ACID [2]: 1.47 mg/dL
- ABSOLUTE BASOPHIL [3]: 0 CELLS/uL
- ABSOLUTE EOSINOPHIL [3]: 69.67 CELLS/uL
- ABSOLUTE LYMPHOCYTE [3]: 10948.67 CELLS/uL
- ABSOLUTE MONOCYTE [3]: 52.33 CELLS/uL
- ABSOLUTE SEGMENTED NEUTROPHIL [3]: 1129.33 CELLS/uL
- BASOPHIL [3]: 0%
- EOSINOPHIL [3]: 0.67%
- ERYTHROCYTE COUNT [3]: 5.48 x10E6/uL
- HEMATOCRIT [3]: 36.03%
- HEMOGLOBIN [3]: 14.33 G/DL
- LEUKOCYTE COUNT [3]: 12.2 x10E3/uL
- LYMPHOCYTE [3]: 89.67%
- MEAN CORPUSCULAR HEMOGLOBIN [3]: 26.17 pg
- MEAN CORPUSCULAR HEMOGLOBIN CONCENTRATION [3]: 39.77 G/DL
- MEAN CORPUSCULAR VOLUME [3]: 65.8 fL
- MONOCYTE [3]: 0.33%
- NEUTROPHIL [3]: 9.33%
- NUCLEATED RED BLOOD CELLS [3]: 0.33 /100WBC
- PLATELET COUNT [3]: 1145.33 x10E3/uL
- ALANINE AMINOTRANSFERASE [3]: 56.33 u/L
- ALBUMIN [3]: 4.6 G/DL
- ALKALINE PHOSPHATASE [3]: 436.67 u/L
- ASPARTATE AMINOTRANSFERASE [3]: 86 u/L
- BLOOD UREA NITROGEN [3]: 17.67 mg/dL
- CARBON DIOXIDE [3]: 26.33 mmol/L
- CHLORIDE [3]: 99.33 MEQ/L
- CHOLESTEROL [3]: 77 mg/dL
- CREATINE PHOSPHOKINASE [3]: 198 u/L
- CREATININE [3]: 0.18 mg/dL
- GLUCOSE [3]: 150.67 mg/dL
- LACTATE DEHYDROGENASE [3]: 162 u/L
- LIPASE [3]: 13.33 u/L
- PHOSPHORUS [3]: 14.83 mg/dL
- POTASSIUM [3]: 7.2 MEQ/L
- SODIUM [3]: 147.4 MEQ/L
- TOTAL BILIRUBIN [3]: 0.2 mg/dL
- TOTAL PROTEIN [3]: 6.37 G/DL
- URIC ACID [3]: 1.9 mg/dL
